Laboratory results from patent US20210205329A1 (The University of North Carolina at Chapel Hill, priority 2018, published 2021).

Assays:
[1] = tested on: LPS-activated TLR4 signal; assay: LPS-activated TLR4 signaling in RAW264.7 cells (immunoblotting); type: cell-based, mouse
Method: Cells and reagents. Mouse monocyte macrophage ceils (RAW264.7) that innately express the TLR4 receptor were obtained from American Type Culture Collection (Manassas, Va., USA). The cells were grown in Dulbecco's modified Eagle's medium (DMEM) (Gibco; Gaithersburg, Md., USA) supplemented with 10% fetal bovine serum (FBS, Gemini, West Sacramento, Calif., USA), 1% penicillin/streptomycin 100× (Gibco) at 37° C. in a 5% CO2 humidified atmosphere. The TLR4-specific ligand IPS was purchased from Sigma-Aldrich (St. Louis, Mo., USA) (Cat. #L3024) and added to the cultures (1 μg/ml) 24 hrs before cell collection.
Immunoblotting. The assay used for RAW264.7 cell lysates and co-immunoprecipitation was as previously described (Aurelian et al, 2016; June et al, 2015; Liu et al, 2011). RAW246.7 cells grown on T-75 flasks (n=5 flasks/group) were lysed with radioimmunoprecipitation (RIPA) buffer [20 mM Tris-HCl (pH 7.4), […], 1% Nonidet P-40 (Sigma, St. Louis, Mo., USA), 0.1% SDS (sodium dodecyl sulfate), 0.5% sodium deoxycholate] supplemented with protease and phosphatase inhibitor cocktails (Sigma). The total protein was determined by the bicinchoninic acid assay (BCA, Thermo Fisher Scientific, Waltham, Mass., USA, Cat. #23228 and Cat. #1859078). The proteins (100 μg/lane) were resolved by SDS-polyacrylamide gel electrophoresis using freshly prepared 16×18 cm gels and transferred to polyvinylidene fluoride membranes (PVDF, Bio-Rad, Cat. #162-0177). Blots were blocked with 5% Blotting-Grade Blocker (Bio-Rad, Cat. #1706404; for non-phosphorylated primary antibodies) or 5% BSA (for phosphorylated primary antibodies) for 2 hrs at room temperature (RT) and exposed to primary antibody overnight (4° C.), followed by horseradish peroxidase-labeled secondary antibodies for 1 h (room temp), immunoreactive bands were visualized with the Plus-ECL kit reagents (Perkin Elmer, Waltham, Mass., USA, Cat. #NEL105001EA) followed by exposure to high-performance chemiluminescence film (Hyperfilm ECL; Amersham). Quantitation was by densitometric scanning with a Bio-Rad GS-700 imaging densitometer. Blots were stripped and re-probed with different primary antibodies 3-5 times. Each densitometric measurement was divided by the corresponding β-Actin densitometric measurement and the results [n=5/group] are expressed as the mean β-Actin-adjusted densitometric units±SEM.
To examine whether the neurosteroids inhibit the LPS-activated TLR4 signal, RAW264.7 cells were treated with IPS (1 μg/mi; 24 hrs) in the absence or presence of 3α,5α-THP (0.5 μM, 1 μM) or pregnenolone (0.5 μM, 1 μM), and ceil extracts were assayed for expression of MyD88-dependent pathway members, by immunoblotting with antibodies to pTAK1, monocyte chemotactic protein (MCP-1), TRAF6, TLR4, and transcription factor NFκB p50 (Chattopadhyay S, et al. (2014). Cytokine Growth Factor Rev 25(5): 533-541; Irie T, et al. (2000). FEBS Lett 467(2-3): […]; Lu Y C, et al. (2008). Cytokine 42(2): 145-151).
Because the neurosteroids had relatively little effect on NFκB p50, the possibility that inhibition of other transcription factors and proinflammatory responses may be involved was considered. RAW246.7 ceils were treated as described above and protein extracts were immunoblotted with antibodies to phospho-NF-κB p65, pCREB, the proinflammatory cytokine tumor necrosis factor alpha (TNFα), and high mobility group box-1 (HMGB1), a highly conserved non-histone chromosomal protein, the translocation of which from the intra- to extra-cellular environment is a critical event in inflammatory responses. Indeed, HMGB1 is currently recognized as a cytokine secreted from activated macrophages and other inflammatory cells during the innate immune response and if is believed to function as a TLR4 ligand. […]

[2] = tested on: innately activated TLR4 signal in P rat VTA; assay: TLR4 signaling in P rat VTA after systemic neurosteroid (immunoblot, MCP-1 ELISA); type: in vivo; settings: 15 mg/kg IP, P rats
Method: Immunoblotting for whole VTA lysates was done as previously described (Carlson et al, 2013). Briefly, VTA micropunches (1 mm thick) were lysed with CelLytic MT (dialyzable mild detergent, bicine, and 150 mM NaCl; Sigma-Aldrich) and protease and phosphatase inhibitor cocktail according to the manufacturer's instructions. Total protein was determined by the BCA assay. The proteins (10 μg/lane) were resolved by NuPAGE™ 4-12% Bis-Tris Midi Protein Gel (Thermo Fisher, Waltham, Mass.) electrophoresis and transferred using the iBlot 2 Dry Blotting System (Thermo Fisher, Waltham, Mass.). Blots were then exposed to an antibody for β-actin for normalization. Proteins were detected with enhanced chemilumenescence (GE Healthcare, Amersham, UK). Membranes were exposed to film under non-saturating conditions. Densitometric analysis was conducted using NIH Image 1.57.
Animals. Selectively bred, but alcohol naïve Alcohol-preferring (P) rats (male, 3-4 months old; 250-550 g) (n=7-9/group) were obtained from the Alcohol Research Center, Indiana University School of Medicine, Animals were double housed in Plexiglas cages containing corn cob bedding and food and water was available ad libitum. The colony room was maintained on a normal 12 hr light-dark cycle (light onset at 0700 hr). Procedures followed National Institutes of Health Guidelines under UNC institutional Animal Care and Use Committee approved protocols at University of North Carolina School of Medicine. Rats were habituated to handling for 7 days prior to administration of 3α,5α-THP (15 mg/kg, IP), pregnenolone (75 mg/kg, IP), 3α,5α-THDOC (15 mg/kg, IP), or vehicle (45% w/v 2-hydroxypropyl-p-cyclodextrin) and returned to their home cage. Rats were sacrificed after 45 minutes and the brain was removed and frozen at −80° C. until VTA micropunches were collected from 1 mm cryostat brain sections. This time point was selected because 3α,5α-THP is rapidly metabolized in vivo (Purdy et al, 1990), but has behavioral and pharmacological activity at this time point (Crawley et al, 1986).
ELISA. Brain tissue micropunches were lysed with Cellyte MT and the extracts were assayed for protein content by the BCA procedure (Pierce) and for MCP-1 using the rat MCP-1 ELISA kit (Raybiotech—ERC-MCP-1-CL; Norcross, Ga., USA) or for fracktalkine using the rat fractalkine ELISA kit (Raybiotech—ERC-CX3CL1-CL; Norcross, Ga., USA) as per manufacturer's instructions.
Since the neurosteroids inhibited the TLR4 activation signal in cultured macrophage cells, experiments were conducted to determine whether this also occurs in the brain. Selectively bred P rats that have an innately activated TLR4 signal in the VTA (Liu J, et al. (2011). Proc Natl Acad Sci USA 108(11): 4465-4470), were administered 3α,5α-THP (15 mg/kg, IP) or pregnenolone (75 mg/kg, IP), sacrificed after 45 minutes and examined for TLR4 signaling using parallel measures. […] 3α,5α-THP administration reduced the levels of MCP-1 by 20±9% (p<0.05), TRAF6 by 19±3% (p<0.0001), and CRF by 28±9% (p<0.01), with no effect on TLR4 protein expression (FIG. 4A). Pregnenolone administration had no effect on TRAF6, CRF, or TLR4.

[3] = tested on: TLR7 signal; assay: Imiquimod-activated TLR7 signaling in RAW264.7 cells; type: cell-based, mouse; settings: imiquimod 1 μg/ml for 24 hours, RAW264.7
Method: Because multiple TLRs signal through MD-2, […] and MyD-88, the specificity of the neurosteroid 3α,5α-THP on TLR2, TLRS and TLR7 signal activation was examined in RAW264.7 ceils (FIG. 7). Pam3Cys (10 μg/ml) activated TLR2 signaling, evidenced by increases in pCREB, pERK1/2, TRAF6 and pATF-2, that were sustained for 24 hrs and inhibited by 3α,5α-THP (1 μM) (50-60% compared to vehicle).

[4] = tested on: TLR3 signal; assay: Poly(I:C)-activated TLR3 signaling in RAW264.7 cells; type: cell-based, mouse; settings: Poly-IC 25 μg/ml; 24 hrs; RAW264.7
[5] = 0.5 μM or 1 μM (concentration not assigned), RAW264.7
[6] = 1.0 μM, LPS 1 μg/ml, 24 hrs, RAW264.7

C[C@]12CC[C@@H](O)C[C@@H]1CC[C@@H]1[C@@H]2CC[C@]2(C)[C@@H](C(=O)CO)CC[C@@H]12 [3α,5α-THDOC, (3α,5α)3,21-dihydroxypregnan-20-one]
inhibition of LPS-activated MCP-1 [1, 5]: approximately 90%
inhibition of LPS-activated NFκB p50 [1, 5]: 30-40%
effect on TLR4 expression ([1]; 0.5 μM or 1 μM, LPS-treated RAW264.7, 24 hrs): did not affect
enhancement of LPS-induced TRAF6 ([1]; 0.5 μM, LPS 1 μg/ml, 24 hrs, RAW264.7): 51.6±8.3%
enhancement of LPS-induced TRAF6 [1, 6]: 16.8±5.7%
increase of LPS-induced pTAK1 [1, 6]: 2 fold
effect on TLR4 protein expression in VTA ([2]; 45 minutes): No effect
increase of CRF levels in VTA [2]: 39±16%
increase of TRAF6 levels in VTA [2]: 32±12%
effect on MCP-1 expression in VTA ([2]; ELISA): no effect

CC(C)Cn1cnc2c(N)nc3ccccc3c21 [imiquimod]
increase in pIRF7 [3]: 30%

Poly-IC
increase in IP-10 (CXCL10) expression [4]: 90%
